Measurements taken from PubChem BioAssay AID2020 (NMMLSC, 2009).
The source made the active and inactive calls.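 Rule for the calls: active = EC50 at or below 30 µM together with a response span of at least a set limit; inactive = the rest.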

Molecular target: Cell division control protein 42 homolog (Homo sapiens) (UniProt P60953)
Assay: fluorescent GTP binding blockers of active-mutant Cdc42 – biochemical, pyrazoline analogs, multiplex bead flow cytometry, Ki, SAR follow-up (AID 2020)
Details: bead-based flow cytometry, Bodipy-FL-GTP binding; for Ki: measured here: Ki calculated from EC50

Cell division control protein 42 homolog (Homo sapiens), sequence (P60953 whole entry, looked up, change not shown): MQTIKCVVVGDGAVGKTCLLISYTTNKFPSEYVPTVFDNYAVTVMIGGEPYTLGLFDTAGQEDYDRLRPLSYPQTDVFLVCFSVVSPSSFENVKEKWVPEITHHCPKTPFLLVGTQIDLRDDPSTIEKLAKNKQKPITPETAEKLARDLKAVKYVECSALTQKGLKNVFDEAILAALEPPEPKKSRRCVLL

SMILES | EC50 | Ki
COc1ccc(C2CC(c3ccc(Cl)cc3)=NN2c2ccccc2)cc1OC (configuration not stated) | > 30 µM (inactive) | –
COc1ccc(C2CC(c3ccc(F)cc3)=NN2c2ccccc2)cc1OC (configuration not stated) | > 30 µM (inactive) | –
COc1cccc(C2CC(c3ccccc3)=NN2c2ccc(S(N)(=O)=O)cc2)c1 (configuration not stated) | 4.32 µM | 0.67 µM
Cc1ccccc1C1CC(c2ccccc2)=NN1c1ccc(S(N)(=O)=O)cc1 (configuration not stated) | 13.6 µM | 2.1 µM
NS(=O)(=O)c1ccc(N2N=C(c3ccc(Cl)cc3)CC2c2ccccc2)cc1 (configuration not stated) | 7.11 µM | 1.1 µM
COc1ccc(C2CC(c3ccc(F)cc3)=NN2c2cc(Cl)ccc2Cl)cc1 (configuration not stated) | > 30 µM (inactive) | –
O=[N+]([O-])c1ccc(N2N=C(c3ccccc3)CC2c2ccccc2)cc1 (configuration not stated) | > 30 µM (inactive) | –
COc1ccc(C2CC(c3cccc(N(C)C)c3)=NN2c2ccc(S(N)(=O)=O)cc2)cc1 (configuration not stated) | > 30 µM (inactive) | –
COc1ccc(C2=NN(c3cccc(F)c3)C(c3ccc(Cl)cc3)C2)cc1 (configuration not stated) | inactive | 4.86 µM
COc1ccc(C2CC(c3cccnc3)=NN2c2ccc(S(N)(=O)=O)cc2)cc1 (configuration not stated) | > 30 µM (inactive) | –
FC(F)(F)c1cccc(N2N=C(c3ccc(Cl)cc3)CC2c2ccccc2Cl)c1 (configuration not stated) | > 30 µM (inactive) | –
COc1ccc(C2CC(c3cccc(OC)c3)=NN2c2ccc(S(N)(=O)=O)cc2)cc1 (configuration not stated) | 1.59 µM | 0.25 µM
COc1ccc(C2CC(c3ccc(Cl)cc3)=NN2c2ccc(S(N)(=O)=O)cc2)cc1 (configuration not stated) | 4.05 µM | 0.63 µM
COc1ccc(C2CC(c3cccc(Br)c3)=NN2c2ccc(S(N)(=O)=O)cc2)cc1 (configuration not stated) | inactive | 0.32 µM
Fc1ccccc1C1CC(c2ccc(Br)cc2)=NN1c1ccc(Br)cc1 (configuration not stated) | > 30 µM (inactive) | –
Cc1ccccc1N1N=C(c2ccccc2)CC1c1cccc([N+](=O)[O-])c1 (configuration not stated) | > 30 µM (inactive) | –
CN(C)c1ccc(C2CC(c3ccc(F)cc3)=NN2c2ccccc2)cc1 (configuration not stated) | > 30 µM (inactive) | –
NS(=O)(=O)c1ccc(N2N=C(c3ccccc3)CC2c2ccc(Cl)cc2)cc1 (configuration not stated) | 3.64 µM | 0.56 µM
COc1ccc(C2CC(c3ccc(Br)cc3)=NN2c2ccc(S(N)(=O)=O)cc2)cc1 (configuration not stated) | inactive | 0.44 µM
COc1ccc(C2CC(c3ccc(N(C)C)cc3)=NN2c2ccc(S(N)(=O)=O)cc2)cc1 (configuration not stated) | > 30 µM (inactive) | –

SMILES | EC50 | Ki
Cc1cccc(C2CC(c3ccccc3)=NN2c2ccc(S(N)(=O)=O)cc2)c1 (configuration not stated) | 5.3 µM | 0.82 µM
COc1ccc(C2CC(c3ccncc3)=NN2c2ccc(S(N)(=O)=O)cc2)cc1 (configuration not stated) | > 30 µM (inactive) | –
CC(=O)Oc1ccc(C2=NN(c3ccccc3)C(c3ccccc3)C2)cc1 (configuration not stated) | inactive | 3.77 µM
COc1ccc(C2CC(c3cccc(C)c3)=NN2c2ccc(S(N)(=O)=O)cc2)cc1 (configuration not stated) | 4.05 µM | 0.63 µM
COc1ccc(C2CC(c3ccccc3)=NN2c2ccc(Cl)c(C(=O)O)c2)cc1 (configuration not stated) | > 30 µM (inactive) | –
COc1ccc(C2CC(c3cccc(C(F)(F)F)c3)=NN2c2ccc(S(N)(=O)=O)cc2)cc1 (configuration not stated) | > 30 µM (inactive) | –
COc1ccc(C2=NN(c3ccc(S(N)(=O)=O)cc3)C(c3ccc(OC)cc3)C2)cc1 (configuration not stated) | inactive | 0.39 µM
CN(C)c1ccc(C2CC(c3ccc(Cl)cc3)=NN2c2ccccc2)cc1 (configuration not stated) | inactive | 4.67 µM
O=S(=O)(O)c1ccc(N2N=C(c3ccccc3)CC2c2ccccc2)cc1 (configuration not stated) | > 30 µM (inactive) | –
COc1ccc(-c2cc(-c3ccccc3)nn2-c2ccc(S(N)(=O)=O)cc2)cc1 | inactive | 0.38 µM
O=[N+]([O-])c1cccc(C2CC(c3ccc(F)cc3)=NN2c2ccccc2)c1 (configuration not stated) | > 30 µM (inactive) | –
FC(F)(F)c1ccccc1C1CC(c2ccc(Br)cc2)=NN1c1ccccc1 (configuration not stated) | > 30 µM (inactive) | –
COc1ccc(C2CC(c3ccccc3Br)=NN2c2ccc(S(N)(=O)=O)cc2)cc1 (configuration not stated) | > 30 µM (inactive) | –
COc1ccc(C2CC(C(C)(C)C)=NN2c2ccc(S(N)(=O)=O)cc2)cc1 (configuration not stated) | > 30 µM (inactive) | –
COc1ccc(C2CC(c3ccccc3OC)=NN2c2ccc(S(N)(=O)=O)cc2)cc1 (configuration not stated) | 5.52 µM | 0.85 µM
COc1ccc(C2=NN(c3ccc(Cl)c(Cl)c3)C(c3ccc(OC)cc3)C2)cc1 (configuration not stated) | > 30 µM (inactive) | –
O=S(=O)(c1ccc(N2N=C(c3ccccc3)CC2c2ccccc2)cc1)C(F)F (configuration not stated) | > 30 µM (inactive) | –
Cc1ccccc1N1N=C(c2ccccc2)CC1c1ccc(N(C)C)cc1 (configuration not stated) | > 30 µM (inactive) | –
O=[N+]([O-])c1ccc(N2N=C(c3ccccc3)CC2c2ccc(O)cc2)cc1 (configuration not stated) | > 30 µM (inactive) | –
CN(C)c1ccc(C2CC(c3ccc(Br)cc3)=NN2c2ccccc2)cc1 (configuration not stated) | > 30 µM (inactive) | –

SMILES | EC50 | Ki
Cc1onc(-c2ccccc2)c1-c1ccc(S(N)(=O)=O)cc1 | > 30 µM (inactive) | –
NS(=O)(=O)c1ccc(N2N=C(c3ccccc3)CC2c2ccccc2)cc1 (configuration not stated) | 16.8 µM | 2.6 µM
NS(=O)(=O)c1ccc(N2N=C(c3ccccc3)CC2c2ccccc2Cl)cc1 (configuration not stated) | 7.4 µM | 1.14 µM
COc1ccc(C2CC(C)=NN2c2ccc(S(N)(=O)=O)cc2)cc1 (configuration not stated) | > 30 µM (inactive) | –
Fc1ccc(C2=NN(c3cccc(Br)c3)C(c3ccccc3)C2)cc1 (configuration not stated) | > 30 µM (inactive) | –
COc1ccc(C2CC(c3ccccc3)=NN2c2ccc(C(=O)O)cc2)cc1 (configuration not stated) | > 30 µM (inactive) | –
COc1ccc(C2CC(c3ccc(F)cc3)=NN2c2cccc(F)c2)cc1OC (configuration not stated) | inactive | 4.88 µM
COc1ccc(C2CC(c3ccccc3C(F)(F)F)=NN2c2ccc(S(N)(=O)=O)cc2)cc1 (configuration not stated) | > 30 µM (inactive) | –
COc1ccccc1C1CC(c2ccccc2)=NN1c1ccc(S(N)(=O)=O)cc1 (configuration not stated) | > 30 µM (inactive) | –
COc1ccc(C2CC(c3cccc(Cl)c3)=NN2c2ccc(S(N)(=O)=O)cc2)cc1 (configuration not stated) | 2.08 µM | 0.32 µM
NS(=O)(=O)c1ccc(N2N=C(c3ccc(Br)cc3)CC2c2ccc(F)cc2)cc1 (configuration not stated) | > 30 µM (inactive) | –
COc1ccc(C2CC(C3CCCCC3)=NN2c2ccc(S(N)(=O)=O)cc2)cc1 (configuration not stated) | > 30 µM (inactive) | –
Cc1ccc(-c2cc(C(F)(F)F)nn2-c2ccc(S(N)(=O)=O)cc2)cc1 | > 30 µM (inactive) | –
COc1ccc(C2CC(c3ccccc3)=NN2c2ccc(C(N)=O)cc2)cc1 (configuration not stated) | > 30 µM (inactive) | –
CN(C)c1ccc(C2CC(c3ccccc3)=NN2c2ccccc2)cc1 (configuration not stated) | inactive | 0.01 µM
COc1ccc(C2=NN(c3ccc(Cl)cc3)C(c3ccccc3F)C2)cc1 (configuration not stated) | > 30 µM (inactive) | –
NS(=O)(=O)c1ccc(N2N=C(c3ccccc3)CC2c2cccc(Br)c2)cc1 (configuration not stated) | 3.67 µM | 0.57 µM
Cc1ccc(C2CC(c3ccccc3)=NN2c2ccc(S(N)(=O)=O)cc2)cc1 (configuration not stated) | 5.04 µM | 0.78 µM
COc1ccc(C2CC(c3ccccc3)=NN2c2cccc(S(N)(=O)=O)c2)cc1 (configuration not stated) | inactive | 0.01 µM

More lines, now with the values ahead:

EC50 | Ki | SMILES
3.57 µM | 0.55 µM | COc1ccc(C2CC(c3ccccc3F)=NN2c2ccc(S(N)(=O)=O)cc2)cc1 (configuration not stated)
> 30 µM (inactive) | – | Clc1cccc(N2N=C(c3ccccc3)CC2c2ccccc2)c1 (configuration not stated)
> 30 µM (inactive) | – | COc1ccc(C2=NN(c3cccc(F)c3)C(c3ccc(OC)cc3)C2)cc1 (configuration not stated)
1.7 µM | 0.26 µM | NS(=O)(=O)c1ccc(N2N=C(c3ccccc3)CC2c2ccc(Br)cc2)cc1 (configuration not stated)
inactive | 3.5 µM | COc1ccc(C2=NN(c3ccccc3)C(c3ccccc3C(F)(F)F)C2)cc1 (configuration not stated)
> 30 µM (inactive) | – | COc1ccc(C2=NN(c3ccccc3)C(c3ccc(Cl)cc3)C2)cc1 (configuration not stated)
> 30 µM (inactive) | – | COc1ccc(C2=NN(c3ccccc3F)C(c3ccc(F)cc3)C2)cc1 (configuration not stated)
> 30 µM (inactive) | – | Brc1ccc(N2N=C(c3ccccc3)CC2c2ccccc2)cc1 (configuration not stated)
3.62 µM | 0.56 µM | NS(=O)(=O)c1ccc(N2N=C(c3ccccc3)CC2c2cccc(Cl)c2)cc1 (configuration not stated)
> 30 µM (inactive) | – | O=[N+]([O-])c1cccc(C2CC(c3ccccc3)=NN2c2ccccc2)c1 (configuration not stated)
> 30 µM (inactive) | – | COc1ccc(C2CC(c3ccccc3)=NN2c2ccc(Cl)c(C(=O)O)c2)cc1OC (configuration not stated)
3.45 µM | 0.53 µM | COc1ccc(C2CC(c3cccc(F)c3)=NN2c2ccc(S(N)(=O)=O)cc2)cc1 (configuration not stated)
> 30 µM (inactive) | – | NS(=O)(=O)c1ccc(N2N=C(c3ccccc3)CC2c2ccccc2Br)cc1 (configuration not stated)
inactive | 0.36 µM | COc1ccc(C2CC(c3ccccc3C)=NN2c2ccc(S(N)(=O)=O)cc2)cc1 (configuration not stated)
> 30 µM (inactive) | – | Cc1cccc(N2N=C(c3ccccc3)CC2c2ccccc2)c1 (configuration not stated)
5.47 µM | 0.85 µM | COc1ccc(C2CC(c3ccc(F)cc3)=NN2c2ccc(S(N)(=O)=O)cc2)cc1 (configuration not stated)
> 30 µM (inactive) | – | Clc1ccc(N2N=C(c3ccccc3)CC2c2ccccc2)cc1 (configuration not stated)
> 30 µM (inactive) | – | O=C(O)c1ccc(N2N=C(c3ccccc3)CC2c2ccccc2)cc1 (configuration not stated)
3.98 µM | 0.62 µM | COc1ccc(C2CC(c3cccs3)=NN2c2ccc(S(N)(=O)=O)cc2)cc1 (configuration not stated)
2.88 µM | 0.45 µM | COc1ccc(C2CC(c3ccccc3Cl)=NN2c2ccc(S(N)(=O)=O)cc2)cc1 (configuration not stated)
> 30 µM (inactive) | – | CN(C)c1ccc(C2CC(c3ccccc3)=NN2c2ccc([N+](=O)[O-])cc2)cc1 (configuration not stated)
> 30 µM (inactive) | – | O=S(=O)(c1ccc(N2N=C(c3ccc(Br)cc3)CC2c2ccccc2)cc1)C(F)F (configuration not stated)
> 30 µM (inactive) | – | COc1ccccc1N1N=C(c2ccccc2)CC1c1ccccc1 (configuration not stated)
inactive | 0.37 µM | COc1ccc(C2CC(c3ccc(C)cc3)=NN2c2ccc(S(N)(=O)=O)cc2)cc1 (configuration not stated)
6.05 µM | 0.94 µM | COc1ccc(C2CC(c3ccccc3)=NN2c2ccc(S(N)(=O)=O)cc2)cc1OC (configuration not stated)
> 30 µM (inactive) | – | COc1ccc(C2CC(c3ccc(Br)cc3)=NN2c2ccccc2Cl)cc1 (configuration not stated)
inactive | – | CCc1ccc(C2=NN(c3ccc(S(N)(=O)=O)cc3)C(c3ccc(F)cc3)C2)cc1 (configuration not stated)
> 30 µM (inactive) | – | COc1ccc(C2=NN(c3ccccc3)C(c3ccc(OC)c(OC)c3C(=O)O)C2)cc1 (configuration not stated)
